# Results from article PMC4045323 (Biochemistry, 2014).
# Biological target: E275C gp120 (Human immunodeficiency virus type 1 group M subtype B, UniProt P35961, E271C)
# Experiment: covalent labeling
# Format: biochemical, HIV-1
# Conditions: α-biotin Western blot, reactants in 2-fold excess (Figure 3)
smiles,measurement,value
"O=C(CCCC[C@@H]1SC[C@@H]2NC(=O)N[C@@H]21)NCCOCCOCCNC(=O)CCN1C(=O)C=CC1=O [MPB, Maleimide-PEG2-biotin, reference compound]",biotinylation (labeling) of E275C gp120,yields significantly lower
